Data on one compound can be found in article PMC6450673, “Targeted degradation of aberrant tau in frontotemporal dementia patient-derived neuronal cell models” (eLife, 2019).

The test deals with T1, total tau (TAU5) in control-1 8330–8-RC1 neurons (Homo sapiens, UniProt P10636).
T1 construct: modeling pathogenic tau species without the need for overexpression of heterologous genes; endogenous in cells; host or cells: 8330-8-RC1, MGH2069-RC1, CTR2-L17-RC2 human iPSC-derived neurons
As to the kind of experiment: Western blot of total tau in control line 1 neurons. Type of test: cell-based. The conditions noted are these: control line 1, western blot, 1 μM, 24 hr. An excerpt: Cells from individuals carrying the tau risk variant A152T (c.1407G > A; NCBI RefSeq NM_001123066, rs143624519), the autosomal dominant mutation P301L (c.C1907T; NCBI NM_001123066, rs63751273), or age-matched non-mutant WT tau were employed in this study (Figure 2—source data 1). Dermal fibroblasts from the tau-P301L carrier and the healthy individual were generated from a skin biopsy from subjects within the MGH Frontotemporal Disorders Unit as part of the MGH Neurodegeneration Repository. Approval for human subjects’ work was obtained under a Partners/MGH-approved IRB Protocol (#2010P001611/MGH). […]
Neurons differentiated in six-well plates for 6 weeks were washed and collected in PBS, lysed in RIPA buffer (Boston Bio-Products, Boston, MA) supplemented with 2% SDS (Sigma), protease inhibitors cocktail (Roche Complete Mini tablets, Mannheim, Germany), and phosphatase inhibitors cocktail (Sigma), followed by water sonication (Bransonic Ultrasonic Baths, Thomas Scientific, Danbury, CT) and 20,000 g centrifugation for 20 min. Supernatants were transferred to new tubes and total protein concentration was quantified with the Pierce BCA Protein Assay Kit (ThermoFisher Scientific, Carlsbad, CA). […]
For orientation: Immunoblotting shows a protein as a band on a membrane.

T1 sequence (P10636 1-441 isoform P10636-8): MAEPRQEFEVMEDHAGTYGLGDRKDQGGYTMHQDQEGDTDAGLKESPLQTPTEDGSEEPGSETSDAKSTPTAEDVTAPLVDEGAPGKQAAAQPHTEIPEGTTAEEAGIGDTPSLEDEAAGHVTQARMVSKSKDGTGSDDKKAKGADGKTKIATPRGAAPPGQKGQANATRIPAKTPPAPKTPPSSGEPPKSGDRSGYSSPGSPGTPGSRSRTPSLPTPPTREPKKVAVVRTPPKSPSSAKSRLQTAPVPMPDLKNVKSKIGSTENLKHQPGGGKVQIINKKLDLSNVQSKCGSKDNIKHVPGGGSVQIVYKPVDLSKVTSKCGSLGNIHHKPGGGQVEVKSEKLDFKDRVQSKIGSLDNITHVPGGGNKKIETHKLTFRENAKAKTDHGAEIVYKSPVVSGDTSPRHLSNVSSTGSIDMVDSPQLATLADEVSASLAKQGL

Consider `O=C(CCc1ccc2c(c1)[nH]c1ccncc12)NCCOCCOCCNc1cccc2c1C(=O)N(C1CCC(=O)NC1=O)C2=O` (stereo not shown) [QC-01–175], for which the degradation of tau entry is listed as “unable to induce significant degradation”.
